Assay [1] addresses Human immunodeficiency virus type 1 protease (Human immunodeficiency virus 1) (UniProt Q72874). The experiment in a line: Percent inhibition against human immunodeficiency virus 1 protease. To be noted: concentration not given here. Further details: concentration or dose not given beside the values.
Assay [2] concerns the target Human immunodeficiency virus type 1 protease (Human immunodeficiency virus 1, UniProt Q72874). In words: Inhibition constant against human immunodeficiency virus 1 protease.
For assay [3], the target named is Human immunodeficiency virus type 1 protease (Human immunodeficiency virus 1) (UniProt Q72874). In words: Inhibitory activity against human immunodeficiency virus type I protease.
Assay [4] has the same target. The experiment in a line: Catalytic constant against human immunodeficiency virus typeI protease.
For assay [5] the target is unchanged. The experiment in a line: Ratio of Michaelis-Menten constant and catalytic constant against human immunodeficiency virus type I protease.
For assay [6] the target is unchanged. In words: Inhibitory activity against human immunodeficiency virus typeI protease.

The record followed here is ChEMBL document CHEMBL1139628, “Beta-lactam compounds as apparently uncompetitive inhibitors of HIV-1 protease” (Bioorg Med Chem Lett, 2005).

Each structure is given as a SMILES string.

As usually defined, the Ki is the dissociation constant of the complex between target and ligand, obtained from inhibition or displacement.

For `COC(=O)CNC(=O)[C@H](c1ccccc1)N1C[C@H](C)C1=O`, the inhibition in assay [1] stood at 63%.

In the case of `CC1CN(C(C(=O)NCC2N=Cc3cncnc32)c2ccccc2)C1=O` (configuration not stated), the inhibition in assay [1] amounted to 76%.

Regarding `CC(C)CNC(=O)C(Cc1ccccc1)N1CCC1=O` (configuration not stated), the inhibition in assay [1] was 65%.

Consider `CC1CN(C(Cc2ccccc2)C(=O)NCC2CCCCC2)C1=O` (configuration not stated), for which, in assay [1], the inhibition was 76%.

In turn, `O=C(OCc1ccccc1)C1CC(=O)N1C(C(=O)NCC1N=Cc2cncnc21)c1ccccc1` (configuration not stated) returned a Ki in assay [2] of 60.3 µM. The inhibition in assay [3] turned out to be 60 µM; in assay [1], 97%. For the same molecule, in assay [4], the K cat was found to be 0.126 s⁻¹. For the same molecule, in assay [5], the Ratio was determined as 0.151 mM⁻¹ s⁻¹.

On to `CC1CN(C(C(=O)NCc2ccccc2)c2ccccc2)C1=O` (configuration not stated), for which the inhibition in assay [1] came out at 86%.

In the case of `CC1CC(=O)N1C(C(=O)NCc1ccccc1)c1ccccc1` (configuration not stated), in assay [1], the inhibition came to 67%.

Regarding `O=C(NCc1ccccc1)C(c1ccccc1)N1C(=O)CC1c1ccccc1` (configuration not stated), in assay [1], the inhibition is 75%.

Take `CC(C)CNC(=O)C(Cc1ccccc1)N1CC(C)C1=O` (configuration not stated): in assay [1], the inhibition was 72%.

As for `O=C(NCc1ccccc1)C(Cc1ccccc1)N1CCC1=O` (configuration not stated), the inhibition in assay [1] worked out at 65%.

Take `O=C(OCc1ccccc1)C1CC(=O)N1C(C(=O)NCc1ccccc1)c1ccccc1` (configuration not stated): the inhibition in assay [1] was found to be 119%.

As for `CCCC(C(=O)NCC1CCCCC1)N1C(=O)CC1C(=O)NC(Cc1ccccc1)C(=O)OC` (configuration not stated), the inhibition in assay [1] turned out to be 71%.

Consider `CC1C(=O)N(C(C(=O)NCC2CCCCC2)c2ccccc2)C1C(=O)OCc1ccccc1` (configuration not stated), for which the inhibition in assay [1] worked out at 92%.

For `CCCCNC(=O)C(Cc1ccccc1)N1CC(C)C1=O` (configuration not stated), the inhibition in assay [1] is 78%.

Consider `COC(=O)CNC(=O)C(Cc1ccccc1)N1C(=O)CC1C(=O)OCc1ccccc1` (configuration not stated), for which the inhibition in assay [1] was determined as 67%.

Take `COC(=O)CNC(=O)[C@H](c1ccccc1)N1CCC1=O`: the inhibition in assay [1] was determined as 70%.

With `CCC[C@@H](C(=O)NCC(=O)OC)N1C(=O)C[C@H]1c1ccccc1`, in assay [1], the inhibition amounted to 68%.

As to `O=C(NCC1CCCCC1)C(Cc1ccccc1)N1CC(O)C1=O` (configuration not stated), in assay [1], the inhibition is 66%.

As for `CCCCNC(=O)C(Cc1ccccc1)N1C(=O)CC1c1ccccc1` (configuration not stated), the inhibition in assay [1] turned out to be 74%.

As to `CCCC(C(=O)NCC(=O)OC)N1C(=O)C(C)C1C(=O)OCc1ccccc1` (configuration not stated), in assay [1], the inhibition turned out to be 87%.

Take `O=C(NCC1N=Cc2cncnc21)C(Cc1ccccc1)N1C(=O)CC1C(=O)OCc1ccccc1` (configuration not stated): in assay [1], the inhibition was 66%.

In turn, `COC(=O)C(Cc1ccccc1)NC(=O)C1C(O)C(=O)N1C(C(=O)NCC1N=Cc2cncnc21)c1ccccc1` (configuration not stated) yielded a Ki in assay [2] of 63.2 µM. In addition, the inhibition was 80 µM in assay [3] and 97% in assay [1]. In assay [4], this molecule yielded a K cat of 0.1 s⁻¹. Besides, the Ratio in assay [5] is 0.155 mM⁻¹ s⁻¹.

On to `CCCC(C(=O)NCC1N=Cc2cncnc21)N1C(=O)CC1C(=O)OCc1ccccc1` (configuration not stated), for which the inhibition in assay [1] stood at 83%.

As for `CC1CN(C(Cc2ccccc2)C(=O)NCC2N=Cc3cncnc32)C1=O` (configuration not stated), the inhibition in assay [1] worked out at 71%.

Consider `CC1CC(=O)N1C(Cc1ccccc1)C(=O)NCC1C=Nc2cncnc21` (configuration not stated), for which the inhibition in assay [1] turned out to be 62%.

Turning to `CCCC(C(=O)NCC1N=Cc2cncnc21)N1CCC1=O` (configuration not stated), in assay [1], the inhibition came to 74%.

Consider `CCCCNC(=O)C(c1ccccc1)N1C(=O)CC1C(=O)OCc1ccccc1` (configuration not stated), for which, in assay [1], the inhibition came out at 71%.

Consider `COC(=O)CNC(=O)[C@H](Cc1ccccc1)N1C(=O)C[C@H]1C(=O)N[C@@H](Cc1ccccc1)C(=O)OC`, for which, in assay [1], the inhibition is 69%.

Consider `O=C(NCC1N=Cc2cncnc21)C(c1ccccc1)N1CCC1=O` (configuration not stated), for which, in assay [1], the inhibition turned out to be 68%.

Regarding `COC(=O)C(Cc1ccccc1)NC(=O)C1CC(=O)N1C(Cc1ccccc1)C(=O)NCC(C)C` (configuration not stated), the inhibition in assay [1] was determined as 68%.

For `COC(=O)C(Cc1ccccc1)NC(=O)C1CC(=O)N1C(C(=O)NCC(C)C)c1ccccc1` (configuration not stated), the inhibition in assay [1] turned out to be 71%.

Turning to `CCCCNC(=O)C(c1ccccc1)N1C(=O)CC1C(=O)NC(Cc1ccccc1)C(=O)OC` (configuration not stated), in assay [1], the inhibition was determined as 86%.

Take `CCCCNC(=O)C(c1ccccc1)N1C(=O)CC1c1ccccc1` (configuration not stated): in assay [1], the inhibition was found to be 63%.

On to `CC1CC(=O)N1C(C(=O)NCC1CCCCC1)c1ccccc1` (configuration not stated), for which, in assay [1], the inhibition was 83%.

For the molecule `O=C(NCC1CCCCC1)C(c1ccccc1)N1CCC1=O` (configuration not stated), the inhibition in assay [1] worked out at 79%.

For `COC(=O)CNC(=O)C(c1ccccc1)N1C(=O)CC1C(=O)OCc1ccccc1` (configuration not stated), the figures for the inhibition in assay [6] and in assay [1] were 1000 µM and 97%, respectively. Further, the Ki in assay [2] is 1140 µM. Further, the K cat in assay [4] turned out to be 0.144 s⁻¹. Also, the Ratio in assay [5] is 0.157 mM⁻¹ s⁻¹.

As to `O=C(NCC1N=Cc2cncnc21)C(c1ccccc1)N1C(=O)CC1c1ccccc1` (configuration not stated), in assay [1], the inhibition came to 78%.

Turning to `CCC[C@@H](C(=O)NCC(=O)OC)N1C(=O)CC1C(=O)N[C@@H](Cc1ccccc1)C(=O)OC` (some centres not stated), the inhibition in assay [1] is 103%.

Turning to `CCCCNC(=O)C(CCC)N1C(=O)CC1c1ccccc1` (configuration not stated), the inhibition in assay [1] was determined as 93%.

On to `CC1CC(=O)N1C(Cc1ccccc1)C(=O)NCC1CCCCC1` (configuration not stated), for which the inhibition in assay [1] worked out at 71%.
